Assay results taken from patent US20130123319A1, “Medthod of Treating a systemic inflammatory disorder and damaged internal tissues” (priority 2011, published 2013).
Read-outs that look alike come from different tables or passages of the source.

Assays:
[1] = test system: Behcet's Disease; experiment: Case reports: patients with exacerbation of Behcet's Disease; assay type: in vivo, human
Excerpt: Behcet's Syndrome is a worldwide disorder that seems to be more severe and more common along the Silk Route and in Japan.
This happened back in the year 2000.

[2] = test system: Myasthenia Gravis without Thymoma; experiment: Case report: patient with Myasthenia Gravis given intravenous nutritional infusion; assay type: in vivo, human; settings: day 5 of the hospitalization
Procedure: In 1990 I began to treat a patient with Myasthenia Gravis without Thymoma, an autoimmune disorder, which causes a decrease in the availability of Acetylcholine at the muscle endplate. Pyridostigmine, which increases the amount of Acetylcholine available at the endplate, and later Prednisone, was added for control of their myasthenia. The later acts by reducing the inflammatory response at the muscle endplate. In 1992 they underwent a bowel operation for correction of an enterorectal fistula and was unable to eat orally or gastrically to be fed. They were put on the standardized intravenous nutritional protocol in the hospital in which I worked, which included 3% Glycerin plus 3% Amino Acids, (see Table 1) at a rate of 100 ccs/hour. This was given for 6 days. There was no change in their Myasthenia Gravis. Twelve days later they were readmitted with abdominal pain and the same IV nutrition was administered. On day 5 of the hospitalization they developed a cholinergic crisis, which was relieved by Atropine. Pyridostigmine and Prednisone were discontinued. […] They were readmitted to the hospital 4 years later because of difficulty swallowing and again was given intravenous 3% Glycerin and 3% Amino Acids. […]

[3] = in vivo, cited from earlier work
[4] = test system: bacteria; settings: virus specimens; more potent when mixed with serum; cited from earlier work

## C[C@]12C=CC(=O)C=C1CC[C@@H]1[C@@H]2C(=O)C[C@@]2(C)[C@H]1CC[C@]2(O)C(=O)CO [Prednisone, reference compound]
[1]; eleven patients, high dose
  response of Behcet's exacerbation: failed to respond
[1]; over 20 patients since 2000, high doses
  response of Behcet's exacerbations: usually responded

## CN1[C@@H]2CC[C@H]1C[C@@H](OC(=O)C(CO)c1ccccc1)C2 (some centres unmarked) [Atropine]
[2]
  cholinergic crisis: relieved

## OCC(O)CO [Glycerin]
[3]
  toxicity: low toxicity
[3]; listed as Sterilized Glycerin
  toxicity: non-toxic
[1]; inventor's review of the cases
  rate of improvement in autoimmune diseases, especially Behcet's Disease: quick or rapid improvement
[1]; one patient with neuro-Behcet's disease
  central nervous system involvement: improved central nervous system involvement rapidly
[4]
  bacteria in the specimens: reduced bacteria
